These results are taken from paper PMC11093748, “De novo identification of CD4^+ T cell epitopes” (Nature Methods, 2024).

The subject of test [1] is 5-4-E8 TCR. In words: Single SABR-II co-incubation, NFAT-GFP Jurkat. Type of test: cell-based, mouse. As to conditions: I-Ad SABR-II; 18-20 h. The text has this:
(§1) We have previously described SABRs, which are chimeric receptors containing an extracellular pMHC complex attached to an intracellular CD28-CD3ζ signaling domain. […] We sought to expand this platform to allow antigen discovery for MHC/HLA-II with seamless integration with class I alleles. Here, we created SABRs to present epitopes in MHC-II alleles, by covalently linking the epitope to the β-chain of MHC-II that is attached to the CD28-CD3ζ signaling domains downstream, along with a 2A peptide-linked MHC-II α-chain (Fig. 1a,b). To test whether SABR-IIs could present epitopes to TCRs and induce a signal, we expressed them using lentiviral vectors in NFAT–GFP Jurkat cells, which express green fluorescent protein (GFP) upon NFAT activation and translocation downstream of CD3ζ activation (a kind gift from Y. Chen and A. Weiss). We constructed murine SABR-IIs presenting epitopes in I-Ab, I-Ad and I-Ag7 (Ova, […][41]; ATEG, […][42]; and 2.5mimo, […][43], respectively). We co-incubated the SABR-II-expressing NFAT–GFP Jurkat cells with a separate population of Jurkat cells expressing either the BDC2.5 TCR (recognizes I-Ag7-2.5mimo), OT-II TCR (recognizes I-Ab-Ova), 5-4-E8 TCR (recognizes I-Ad-ATEG) or no TCR. […]

Test [2] concerns OT-II TCR. Kind of test: Single SABR-II co-incubation, NFAT-GFP Jurkat. In kind it is cell-based, mouse. As to conditions: I-Ab SABR-II; 18-20 h.
Excerpt: as §1

Test [3] concerns Jurkat cells, No TCR. Kind of test: Single SABR-II co-incubation, background without TCR. In kind it is cell-based, human. The settings on record: No TCR, Ext. Data Fig. 6C, 18-20 hr. Summed up: (§2)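 Single SABR-II constructs for putative cognate epitopes were expressed in CellTrace Violet-labelled NFAT–GFP Jurkat cells and co-incubated 1:1 (5 × 10^5 each) with TCR-expressing Jurkat cells for 16–20 h. GFP (with CD69 staining when indicated) was measured by flow cytometry. Wells with GFP above the no-TCR control were scored positive.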

Test [4] relates to TCR2. Kind of test: Single SABR-II co-incubation, NFAT-GFP Jurkat. Type of test: cell-based, mouse. The settings on record: TCR 2, Ext. Data Fig. 6C, 18-20 hr. Summed up:
as §2

Test [5] deals with GSE.20D11 TCR. In words: Single SABR-II co-incubation, NFAT-GFP Jurkat (HLA-DQ8). In kind it is cell-based, human. The settings on record: GSE 20.D11 TCR. The text has this:
(§3) We have previously described SABRs, which are chimeric receptors containing an extracellular pMHC complex attached to an intracellular CD28-CD3ζ signaling domain. […] We sought to expand this platform to allow antigen discovery for MHC/HLA-II with seamless integration with class I alleles. Here, we created SABRs to present epitopes in MHC-II alleles, by covalently linking the epitope to the β-chain of MHC-II that is attached to the CD28-CD3ζ signaling domains downstream, along with a 2A peptide-linked MHC-II α-chain (Fig. 1a,b). To test whether SABR-IIs could present epitopes to TCRs and induce a signal, we expressed them using lentiviral vectors in NFAT–GFP Jurkat cells, which express green fluorescent protein (GFP) upon NFAT activation and translocation downstream of CD3ζ activation (a kind gift from Y. Chen and A. Weiss). We constructed murine SABR-IIs presenting epitopes in I-Ab, I-Ad and I-Ag7 (Ova, […][41]; ATEG, […][42]; and 2.5mimo, […][43], respectively). We co-incubated the SABR-II-expressing NFAT–GFP Jurkat cells with a separate population of Jurkat cells expressing either the BDC2.5 TCR (recognizes I-Ag7-2.5mimo), OT-II TCR (recognizes I-Ab-Ova), 5-4-E8 TCR (recognizes I-Ad-ATEG) or no TCR. […] The signal from the NFAT–GFP reporter offered minimal background in absence of a cognate TCR and correlated with surface SABR expression in the presence of a cognate TCR (Extended Data Fig. 1c–e). […] We confirmed the ability of the DQ8-InsB9:23 SABR-II to present the epitope to two previously described, T1D patient-derived TCRs GSE.6H9 and GSE.20D11 (ref. [46]).
(§4) For SABR library screens, 3 × 10^6 NFAT–GFP Jurkat cells expressing the SABR library were labeled with CellTrace Violet (BioLegend) according to the manufacturer’s protocol before incubation with 3 × 10^6 Jurkat cells expressing the TCR of interest. These mixtures were incubated in a six-well plate for 16–20 h. Cells were stained with anti-CD69-APC-Cy7 where indicated (BioLegend) and the top 1–2% of GFP^+CD69^+ cells were sorted for genomic DNA extraction, indexing and sequencing (see below). Multiplexed assays were scaled on a per-TCR basis (for example 3 × 10^6 for each of three TCRs against 9 × 10^6 library cells). For single SABR assays, unless otherwise defined, 5 × 10^5 SABR expressing NFAT–GFP Jurkat cells (or 5KC cells) were labeled with CellTrace Violet (BioLegend) according to the manufacturer’s protocol before incubation with 5 × 10^5 TCR-expressing Jurkat cells (or 5KC cells) in a round-bottom 96-well plate for 16–20 h. Cells were stained with anti-CD69-APC-Cy7 when indicated and acquired on the Attune NxT flow cytometer (Thermo Fisher Scientific). All flow analysis was performed using FlowJo (BD). For Daudi cell co-culture, 1 × 10^6 Jurkat cells expressing the TCR of interest were incubated with 1 × 10^6 Daudi cells expressing a SABR of interest for 3 days. On day 3, cells were labeled with anti-RT1B-PE and anti-Fas-APC-Cy7 before being acquired on the Attune NxT flow cytometer.

For test [6], the system named is GSE.6H9 TCR. The test is described as above. As to conditions: GSE 6.H9 TCR. In kind it is cell-based, human.
Excerpt: as §3, §4

As to ATEGRVRVNSAYQDK, the “GFP and CD69 expression in SABR-II-expressing NFAT-GFP Jurkat cells (in words)” value in test [1] is “Robust GFP and CD69 expression”.

Turning to ISQAVHAAHAEINEAGR [Ova], the “GFP and CD69 expression in SABR-II-expressing NFAT-GFP Jurkat cells (in words)” value in test [2] was “Robust GFP and CD69 expression”.

With RQNGVLNSWTDQD, the “%GFP+CD69+ cells of SABR-NFAT-GFP-Jurkat cells” value worked out at 1.51% in test [3] (technical replicate 1), 1.42% in test [3] (technical replicate 2), 1.56% in test [4] (technical replicate 1) and 1.62% in test [4] (technical replicate 2).

Take SHLVEALYLVCERG: the “Frequency of %GFP+CD69+ cells of SABR-NFAT-GFP-Jurkat cells” value in test [5] (biological replicate 1 of 3) worked out at 24.8%; in test [5] (biological replicate 2 of 3), 42.4%; in test [5] (biological replicate 3 of 3), 41.1%; in test [6] (biological replicate 1 of 3), 16.8%; in test [6] (biological replicate 2 of 3), 29.6%; in test [6] (biological replicate 3 of 3), 27.9%.
